Assays:
Assay in all cases: Cultures and tests of inhibition (culture agar, Petri box)
Type in all cases: cell-based
Conditions in all cases: added to the culture agar; inhibition haloes in the Petri box
E. Coli = tested on: E. Coli
pseudomona = tested on: pseudomona
staphylococcus aureus = tested on: staphylococcus aureus

Measured: inhibition of growth

OCl [Hypochlorous acid]
full inhibition: E. Coli | pseudomona | staphylococcus aureus

— patent US7323118B2, “Composition of hypochlorous acid and its applications” (Aquilabs S.A., priority 2001, dated 2008)
